In US6368788B1 (priority 1987, dated 2002):
Marks after values point to notes of the source that are not given here.

Assays:
[1] = Acute osteomyelitis / soft tissue inflammation in children (Protocol C); format: in vivo, human
Experimental: Seventeen hospitalized children (10 boys and 7 girls) were entered into this protocol: 6 with acute inflammatory diseases of soft tissues (abscesses, phlegmons), 4 with odotogenous osteomyelitis of the jaw, and 7 with hematogenous osteomyelitis of the flat and tubular bones. In 11 children, the course of the illness was acute and in 6 it was subacute and chronic.
L-Glu-L-Trp was administered in combination therapy with conventional antibiotic therapies. Where necessary, surgery was performed to drain infectious foci in the jaw or soft tissues, affected teeth were extracted, and for osteomyelitis a port was drilled for infusion of antibiotics. Physical examination and laboratory testing was conducted before administering L-Glu-L-Trp and 2-3 days after the treatment.
Laboratory tests were conducted to determine clinical chemistry and protein values prior to and after therapy (i.e., including the concentrations of bilirubin, creatinine, albumin, cholesterol, urea nitrogen, glucose, protein, chloride, potassium, phosphorus, calcium, sodium, alkaline phosphatase, α1-orosomucoid, α2-macroglobulin, prealbumin, ceruloplasmin, and transferrin). While urea nitrogen and cholesterol decreased slightly after therapy, these and all other changes observed after L-Glu-L-Trp treatment were not statistically significant.

[2] = system: lymphocytes of thymus, spleen, lymph nodes, peripheral blood; assay: Recovery of immune cells in irradiated guinea pigs (1 Gy); format: in vivo; details: for E-RFC / E-RFC (% Normal) / EA-RFC / EA-RFC (% Normal) / EAC-RFC / EAC-RFC (% Normal) / Lymphocytes / Lymphocytes (% Normal) / Lymphocyte Blastogenesis with Con-A / Neutrophil Cationic Protein Levels: 0.01 mg/kg daily 5 days
Source text: X-irradiation an accepted experimental animal model for depressing cellular immune mechanisms operative in anti-bacterial, anti-viral, and anti-parasitic immunity. The levels of lymphocytes in thymus, spleen, and lymph node are decreased following sub-lethal radiation exposure, and the effects of L-Glu-L-Trp on recovery of immune function following radiation exposure were investigated in this model.
142 guinea pigs were exposed to 1 Gy of X-irradiation and then treated with L-Glu-L-Trp at a dose of 0.01 mg/kg daily for 5 days starting two days after the irradiation. Immunologic indices were determined at 5, 10, and 20 days by preparing samples of immune cells from thymus, spleen, lymph nodes, and peripheral blood. Cell preparations were analyzed to determine the content of lymphocytes, E-RFC (i.e., T-lymphocytes), EA-RFC (“activated” T-lymphocytes), and EAC-RFC (i.e., B-lymphocytes). (The materials and methods used in these analyses are presented following EXAMPLE 38, below. The results obtained in these experiments are summarized in TABLE 55. […]
Neutrophil cationic proteins were determined according to the method of V. E. Pigarevsky and Yu. A. Mazing (1981). Briefly, blood smears were air dried, stained for 20 minutes in a buffered methanol.-fast green solution, washed in distilled water, and stained for an additional 30 minutes with Azure 11. The percentage of cells containing green-colored granules was determined by microscopically counting a minimum of 100-200 of the cells in the smears, and cation protein concentration was recorded as the mean cytotoxic coefficient (MCC) according to a modified formula of Astold & Berg.

[3] = children, After L-Glu-L-Trp Therapy (2-3 days after treatment)
[4] = lymph node, 5 days post irradiation (1 Gy)
[5] = lymph node, 10 days post irradiation (1 Gy)
[6] = lymph node, 20 days post irradiation (1 Gy)
[7] = peripheral blood, 5 days post-irradiation
[8] = peripheral blood, 10 days post-irradiation
[9] = peripheral blood, 20 days post-irradiation
[10] = splenic, 5 days post irradiation (1 Gy)
[11] = splenic, 10 days post irradiation (1 Gy)
[12] = splenic, 20 days post irradiation (1 Gy)
[13] = thymic, 5 days post irradiation (1 Gy)
[14] = thymic, 10 days post irradiation (1 Gy)
[15] = thymic, 20 days post irradiation (1 Gy)

L-Glu-L-Trp
B-Lymphocytes: % of PBL [1, 3]: 15.1 ± 3.32 % of PBL
B-Lymphocytes: No. [1, 3]: 0.41 ± 0.11 10^9/L
C3 [1, 3]: 0.72 ± 0.05 g/L
IgA [1, 3]: 1.68 ± 0.18 g/L
IgG [1, 3]: 14.4 ± 1.31 g/L
IgM [1, 3]: 1.64 ± 0.26 g/L
LMIR: % Con A [1, 3]: 49.7 ± 13.7 %
LMIR: % PHA [1, 3]: 47.7 ± 11.2 %
Leukocytes [1, 3]: 7.0 ± 0.4^† 10^9/L
Lymphocytes: % of PBL [1, 3]: 43 ± 3.61 % of PBL
Lymphocytes: No. [1, 3]: 3.15 ± 0.41 10^9/L
Neutrophils [1, 3]: 3.4 ± 0.33 ×10^9/L
Neutrophils: % PBL [1, 3]: 50 ± 4.8 % PBL
Null-Lymphocytes: % of PBL [1, 3]: 18.7 ± 4.68 % of PBL
Null-Lymphocytes: No. [1, 3]: 0.42 ± 0.11^† 10^9/L
T-Lymphocytes: % of Lym [1, 3]: 66.2 ± 2.57 % of Lym
T-Lymphocytes: No. [1, 3]: 1.7 ± 0.3 10^9/L
T-helper (Etr-RFC): % of Lym [1, 3]: 57.3 ± 6.34 % of Lym
T-helper (Etr-RFC): No. [1, 3]: 1.4 ± 0.24 10^9/L
T-suppressor: % of Lym [1, 3]: 8.8 ± 5.4 % of Lym
T-suppressor: No. [1, 3]: 0.3 ± 0.2 10^9/L
Wounds cleaned and granulated earlier than usual ([1]; in vivo): 2 to 3 days
Splenic B-lymphocytes (EAC-RFC), % of normal ([2]; day 5): 82%
Thymic T-lymphocyte counts, % of normal ([2]; day 5): 67%
Thymic lymphocytes, % of normal ([2]; day 5): 82%
Splenic B-lymphocytes (EAC-RFC), % of normal ([2]; day 10): 100%
Thymic T-lymphocyte counts, % of normal ([2]; day 10): 51%
Thymic lymphocytes, % of normal ([2]; day 10): 56%
Lymph node T-lymphocyte counts ([2]; guinea pig, in vivo): significantly increased T-lymphocyte counts in lymph nodes on days 5, 10 and 20
E-RFC [2, 4]: 40 +/− 4** × 10^9/L
E-RFC (% Normal) [2, 4]: (122%)
EA-RFC [2, 4]: 20 +/− 3** × 10^9/L
EA-RFC (% Normal) [2, 4]: (111%)
EAC-RFC [2, 4]: 25 +/− 2** × 10^9/L
EAC-RFC (% Normal) [2, 4]: (45%)
Lymphocytes [2, 4]: 183 +/− 21* × 10^9/L
Lymphocytes (% Normal) [2, 4]: (73%)
E-RFC [2, 5]: 29 +/− 3** × 10^9/L
E-RFC (% Normal) [2, 5]: (88%)
EA-RFC [2, 5]: 17 +/− 2** × 10^9/L
EA-RFC (% Normal) [2, 5]: (94%)
EAC-RFC [2, 5]: 12 +/− 1* × 10^9/L
EAC-RFC (% Normal) [2, 5]: (21%)
Lymphocytes [2, 5]: 75 +/− 13* × 10^9/L
Lymphocytes (% Normal) [2, 5]: (30%)
E-RFC [2, 6]: 30 +/− 2** × 10^9/L
E-RFC (% Normal) [2, 6]: (91%)
EA-RFC [2, 6]: 25 +/− 4** × 10^9/L
EA-RFC (% Normal) [2, 6]: (139%)
EAC-RFC [2, 6]: 9 +/− 1* × 10^9/L
EAC-RFC (% Normal) [2, 6]: (16%)
Lymphocytes [2, 6]: 242 +/− 31** × 10^9/L
Lymphocytes (% Normal) [2, 6]: (96%)
Con-A responsiveness and neutrophil cationic proteins ([2]; peripheral blood): statistically significant decrease in Con-A responsiveness and increased levels of neutrophil cationic proteins
Lymphocyte Blastogenesis with Con-A [2, 7]: 44 +/− 4** %
Neutrophil Cationic Protein Levels [2, 7]: 1.42 +/− 0.15*
Lymphocyte Blastogenesis with Con-A [2, 8]: 67 +/− 5** %
Neutrophil Cationic Protein Levels [2, 8]: 1.54 +/− 0.09**
Lymphocyte Blastogenesis with Con-A [2, 9]: 49 +/− 2** %
Neutrophil Cationic Protein Levels [2, 9]: 1.63 +/− 0.11**
E-RFC [2, 10]: 48 +/− 4** × 10^9/L
E-RFC (% Normal) [2, 10]: (120%)
EA-RFC [2, 10]: 22 +/− 4** × 10^9/L
EA-RFC (% Normal) [2, 10]: (85%)
EAC-RFC [2, 10]: 60 +/− 5** × 10^9/L
EAC-RFC (% Normal) [2, 10]: (82%)
Lymphocytes [2, 10]: 378 +/− 36** × 10^9/L
Lymphocytes (% Normal) [2, 10]: (92%)
E-RFC [2, 11]: 29 +/− 3* × 10^9/L
E-RFC (% Normal) [2, 11]: (73%)
EA-RFC [2, 11]: 15 +/− 2* × 10^9/L
EA-RFC (% Normal) [2, 11]: (58%)
EAC-RFC [2, 11]: 73 +/− 5** × 10^9/L
EAC-RFC (% Normal) [2, 11]: (100%)
Lymphocytes [2, 11]: 147 +/− 18** × 10^9/L
Lymphocytes (% Normal) [2, 11]: (36%)
E-RFC [2, 12]: 45 +/− 4** × 10^9/L
E-RFC (% Normal) [2, 12]: (113%)
EA-RFC [2, 12]: 29 +/− 4** × 10^9/L
EA-RFC (% Normal) [2, 12]: (112%)
EAC-RFC [2, 12]: 82 +/− 9 × 10^9/L
EAC-RFC (% Normal) [2, 12]: (112%)
Lymphocytes [2, 12]: 260 +/− 32** × 10^9/L
Lymphocytes (% Normal) [2, 12]: (64%)
E-RFC [2, 13]: 252 +/− 26** × 10^9/L
E-RFC (% Normal) [2, 13]: (67%)
EA-RFC [2, 13]: 150 +/− 16** × 10^9/L
EA-RFC (% Normal) [2, 13]: (52%)
EAC-RFC [2, 13]: 4 +/− 1** × 10^9/L
EAC-RFC (% Normal) [2, 13]: (80%)
Lymphocytes [2, 13]: 395 +/− 27** × 10^9/L
Lymphocytes (% Normal) [2, 13]: (82%)
E-RFC [2, 14]: 195 +/− 21** × 10^9/L
E-RFC (% Normal) [2, 14]: (51%)
EA-RFC [2, 14]: 143 +/− 16** × 10^9/L
EA-RFC (% Normal) [2, 14]: (49%)
EAC-RFC [2, 14]: 3 +/− 0.4* × 10^9/L
EAC-RFC (% Normal) [2, 14]: (60%)
Lymphocytes [2, 14]: 276 +/− 26** × 10^9/L
Lymphocytes (% Normal) [2, 14]: (57%)
E-RFC [2, 15]: 343 +/− 30** × 10^9/L
E-RFC (% Normal) [2, 15]: (91%)
EA-RFC [2, 15]: 243 +/− 28** × 10^9/L
EA-RFC (% Normal) [2, 15]: (84%)
EAC-RFC [2, 15]: 4 +/− 0.4 × 10^9/L
EAC-RFC (% Normal) [2, 15]: (80%)
Lymphocytes [2, 15]: 423 +/− 40** × 10^9/L
Lymphocytes (% Normal) [2, 15]: (88%)
